Experimental data reported in patent US7868026B2, “Therapeutic compounds” (Pfizer Inc., priority 2005, dated 2011).
Like-named read-outs stand apart in the source and are kept apart here.

How the values were obtained:
Type in all cases: biochemical
CYP3A4 [1] = biological target: T1, CYP3A4 (Homo sapiens, UniProt P08684); assay: Determination of compound Kiapp against recombinant CYP3A4 enzyme (BFC fluorescent substrate)
In short: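 Kiapp derived from initial velocities over the first 5 min of BFC (5 uM) oxidation, using Morrison's tight-binding equation for non-partial and Szedlacsek's for partial inhibitors. Inhibitor first pre-incubated ≥30 min with CYP3A4 (5.5 or 8 nM, ±b5) in pH 7.0 phosphate/TCEP/2% DMF at room temperature; 200 uM NADPH initiated.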

CYP3A4 [2] = biological target: T1, CYP3A4; assay: Determination of IC50 against CYP3A4 by measurement of inhibition of testosterone metabolism (human liver microsomes, 6-β-OH-testosterone by LC-MS/MS); set-up: 0.1 mg/mL human liver microsomes; conditions: read-out: IC50 (Testo.)
In short: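 6-β-OH-testosterone formation was read by LC-MS/MS (MRM, internal standard, standard curve) after eight minutes. Reaction contained testosterone 25 μM, NADPH 1 mM and microsomal protein 0.1 mg/mL in pH 7.4 potassium phosphate (100 mM).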

CYP3A4 [3] = biological target: T1, CYP3A4; assay: Determination of IC50 against CYP3A4 by measurement of inhibition of midazolam metabolism (human liver microsomes, 1-hydroxymidazolam by LC-MS/MS); set-up: 0.1 mg/mL human liver microsomes; conditions: 2 μM midazolam, 0.1 mg/mL human liver microsomes
In short: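 Human liver microsomes (0.1 mg/mL) incubated 8 min with 2 μM midazolam and 1 mM NADPH in 100 mM potassium phosphate, pH 7.4. 1-Hydroxymidazolam quantified by LC-MS/MS (MRM) as peak area ratio to internal standard against a metabolite standard curve.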

[4] = Baculo. enzyme preparation, read-out: Kiapp (BFC, Baculo.)
[5] = Super. enzyme preparation, read-out: Kiapp (BFC, Super.)

T1 sequence (P08684 whole entry): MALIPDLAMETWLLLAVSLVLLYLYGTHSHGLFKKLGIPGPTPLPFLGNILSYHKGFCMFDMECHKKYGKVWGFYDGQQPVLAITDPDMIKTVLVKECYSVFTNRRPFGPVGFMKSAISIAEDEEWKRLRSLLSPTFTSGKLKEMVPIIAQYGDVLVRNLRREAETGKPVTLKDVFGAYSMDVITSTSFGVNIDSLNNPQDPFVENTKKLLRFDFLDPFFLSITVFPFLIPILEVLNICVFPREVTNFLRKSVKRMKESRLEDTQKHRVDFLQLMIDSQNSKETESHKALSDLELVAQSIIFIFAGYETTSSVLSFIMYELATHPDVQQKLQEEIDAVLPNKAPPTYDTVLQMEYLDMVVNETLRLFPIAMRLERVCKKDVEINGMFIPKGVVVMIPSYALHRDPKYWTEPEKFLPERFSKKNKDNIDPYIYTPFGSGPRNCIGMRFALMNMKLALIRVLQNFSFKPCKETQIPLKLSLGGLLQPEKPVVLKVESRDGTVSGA

| Structure (SMILES) | Ki (CYP3A4 [1]; [4]) [nM] | Ki (CYP3A4 [1]; [5]) [nM] | IC50 (CYP3A4 [2]) [nM] | IC50 (CYP3A4 [3]) [nM] |
| --- | --- | --- | --- | --- |
| COc1cncc(NS(=O)(=O)c2ccccc2C(=O)NCCO)c1 [Example 176, N-(2-hydroxyethyl)-2-{[(5-methoxypyridin-3-yl)amino]sulfonyl}benzamide] | > 1000 | 625 | > 750 | 406 |
| Cc1cncc(NS(=O)(=O)c2ccccc2C(=O)NC(C)(C)C)c1 [Example 354, N-(tert-butyl)-2-{[(5-methyl-pyridin-3-yl)amino]sulfonyl} benzamide] | 305 | 25.3 | 61 | 31 |
| Cc1ccncc1NS(=O)(=O)c1ccccc1C(=O)NCCOc1ccccc1 [Example 171, 2-{[(4-methylpyridin-3-yl)amino]sulfonyl}-N-(2-phenoxyethyl)benzamide] | 299 | 49.1 | 38 | 35 |
| CC(C)NC(=O)c1ccccc1S(=O)(=O)Nc1cccnc1 [Example 49, N-isopropyl-2-[(pyridin-3-ylamino)sulfonyl]benzamide] | > 1000 | – | > 500 | 328 |
| CC(C)(COCc1ccccc1)NC(=O)c1ccccc1S(=O)(=O)Nc1cccnc1 [Example 34, N-[2-(benzyloxy)-1,1-dimethylethyl]-2-[(pyridin-3-ylamino)sulfonyl]benzamide] | > 1000 | – | > 750 | > 750 |
| O=C(c1ccccc1S(=O)(=O)Nc1cccnc1)N1Cc2ccccc2C1 [Example 88, 2-(1,3-dihydro-2H-isoindol-2-ylcarbonyl)-N-pyridin-3-ylbenzenesulfonamide] | 362 | 47.6 | 28 | 185 |
| Cc1cncc(NS(=O)(=O)c2ccccc2C(=O)N2CCCC2)c1 [Example 321, N-(5-methylpyridin-3-yl)-2-(pyrrolidin-1-ylcarbonyl)benzenesulfonamide] | 195 | 460 | 129 | 94 |
| CC1CCN(C(=O)c2ccccc2S(=O)(=O)N(C)c2cccnc2)CC1 [Example 356, N-methyl-2-[(4-methylpiperidin-1-yl)carbonyl]-N-pyridin-3-ylbenzenesulfonamide] | 483 | 148 | 114 | 83 |
| COc1cncc(NS(=O)(=O)c2ccccc2C(=O)N2CCC(C)CC2)c1 [Example 389, N-(5-methoxypyridin-3-yl)-2-[(4-methylpiperidin-1-yl)carbonyl]benzenesulfonamide] | 241 | 2.81 | 57 | 24 |
| COc1cncc(NS(=O)(=O)c2ccccc2C(=O)N2CCC(O)CC2)c1 [Example 365, 2-[(4-hydroxypiperidin-1-yl)carbonyl]-N-(5-methoxypyridin-3-yl)benzenesulfonamide] | > 1000 | 515 | > 750 | > 750 |
| Cc1ccncc1NS(=O)(=O)c1ccccc1C(=O)N(C)Cc1ccc(C(F)(F)F)cc1 [Example 165, N-methyl-2-{[(4-methylpyridin-3-yl)amino]sulfonyl}-N-[4-(trifluoromethyl)benzyl]benzamide] | 163 | 29.6 | 54 | 43 |

The next molecules have a lower Ki (CYP3A4 [1]; [4]) than those just listed; values first:

| Ki (CYP3A4 [1]; [4]) [nM] | Ki (CYP3A4 [1]; [5]) [nM] | IC50 (CYP3A4 [2]) [nM] | IC50 (CYP3A4 [3]) [nM] | Structure (SMILES) |
| --- | --- | --- | --- | --- |
| 52 | 13.2 | 11 | 19 | COc1cncc(NS(=O)(=O)c2ccccc2C(=O)N(C)Cc2cccc(F)c2)c1 [Example 346, N-(3-fluorobenzyl)-2-{[(5-methoxypyridin-3-yl)amino]sulfonyl}-N-methylbenzamide] |
| 30.8 | 4.7 | 12 | 7 | Cc1cncc(NS(=O)(=O)c2ccccc2C(=O)N(C)CCC(C)C)c1 [Example 348, N-methyl-N-(3-methylbutyl)-2-{[(5-methylpyridin-3-yl)amino]sulfonyl}benzamide] |
| 78 | 18.7 | 14 | 13 | COc1cncc(NS(=O)(=O)c2ccccc2C(=O)NCc2ccccc2F)c1 [Example 378, N-(2-fluorobenzyl)-2-{[(5-methoxypyridin-3-yl)amino]sulfonyl}benzamide] |
| 131 | 5.6 | 192 | 23 | O=C(NCCc1ccccc1)c1ccccc1S(=O)(=O)Nc1cccnc1 [Example 77, N-(2-phenylethyl)-2-[(pyridin-3-ylamino)sulfonyl]benzamide] |
| 37.4 | 3.5 | 13 | 6 | COc1cncc(NS(=O)(=O)c2ccccc2C(=O)NC(C)c2ccc(Cl)cc2)c1 (stereo not shown) [Example 182, N-[1-(4-chlorophenyl)ethyl]-2-{[(5-methoxypyridin-3-yl)amino]sulfonyl}benzamide] |
| 105 | 19.1 | 24 | 5 | COc1cncc(NS(=O)(=O)c2ccccc2C(=O)NCc2c(F)cccc2F)c1 [Example 207, N-(2,6-difluorobenzyl)-2-{[(5-methoxypyridin-3-yl)amino]sulfonyl}benzamide] |
| 105 | 12.1 | 41 | 16 | O=C(NCc1ccc(F)c(F)c1)c1ccccc1S(=O)(=O)Nc1cccnc1 [Example 85, N-(3,4-difluorobenzyl)-2-[(pyridin-3-ylamino)sulfonyl]benzamide] |
| 16.4 | 2.6 | 8 | < 3 | Cc1cncc(NS(=O)(=O)c2ccccc2C(=O)NCCc2ccccc2Cl)c1 [Example 226, N-[2-(2-chlorophenyl)ethyl]-2-{[(5-methylpyridin-3-yl)amino]sulfonyl}benzamide] |
| 52.2 | 9.2 | 15 | 38 | COc1cncc(NS(=O)(=O)c2ccccc2C(=O)NCc2ccc(Cl)cc2F)c1 [Example 150, N-(4-chloro-2-fluorobenzyl)-2-{[(5-methoxypyridin-3-yl)amino]sulfonyl}benzamide] |
| 54.5 | 5.9 | 11 | 13 | COc1cncc(NS(=O)(=O)c2ccccc2C(=O)NCc2cc(F)cc(F)c2)c1 [Example 184, N-(3,5-difluorobenzyl)-2-{[(5-methoxypyridin-3-yl)amino]sulfonyl}benzamide] |
| 117 | 73 | 43 | 27 | CCCCN(C)C(=O)c1ccccc1S(=O)(=O)Nc1cccnc1 [Example 376, N-butyl-N-methyl-2-[(pyridin-3-ylamino)sulfonyl]benzamide] |
| 35.4 | 6.1 | 26 | 14 | CCCCCN(C)C(=O)c1ccccc1S(=O)(=O)Nc1cncc(OC)c1 [Example 339, 2-{[(5-methoxypyridin-3-yl)amino]sulfonyl}-N-methyl-N-pentylbenzamide] |
| 28.4 | 85.8 | 264 | 69 | COc1cncc(NS(=O)(=O)c2ccc(OC3CCNCC3)cc2C(=O)N(C)C(C)C)c1 [Example 243, N-isopropyl-2-{[(5-methoxypyridin-3-yl)amino]sulfonyl}-N-methyl-5-(piperidin-4-yloxy)benzamide] |
